Consider 25 molecules from patent publication US9714243B2, “4-pyridinonetriazine derivatives as HIV integrase inhibitors” (Merck Sharp & Dohme Corp., priority 2012, dated 2017).

Like-named read-outs stand apart in the source and are kept apart here.

In the assay the test system is HIV-1 (NL4-3 strain). Description: Assay for inhibition of HIV replication (ViKinG; infected MT4-GFP cells). It counts as cell-based. In a few lines: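 MT4-GFP cells infected with NL4-3 at low MOI for 24 h, washed, then exposed to serially diluted compound (0.4% DMSO) in RPMI. GFP+ cells counted at 24 and 48 h; R0 = 48 h/24 h ratio, inhibition normalised to DMSO and triple-drug controls, IC50 from 4-parameter fit.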

Setting [1] is: Human immunodeficiency virus 1, NL43, MT4-GFP cells infected with HIV-1 NL4-3, 0% normal human serum (NHS), read-out: ViKinG IP (nM) with 0% NHS.
The mark [2] stands for this setting: Human immunodeficiency virus 1, NL43, MT4-GFP cells infected with HIV-1 NL4-3, 100% normal human serum (NHS), read-out: ViKinG IP (nM) with 100% NHS.
[3] abbreviates: MT4-GFP cells infected with HIV-1 NL4-3, 100% normal human serum (NHS), read-out: ViKinG IP (nM) with 100% NHS.
Where [4] appears, read: MT4-GFP cells infected with HIV-1 NL4-3, 0% normal human serum (NHS), read-out: ViKinG IP (nM) with 0% NHS.
[5] abbreviates: Human immunodeficiency virus 1, NL43, MT4-GFP cells infected with HIV-1 NL4-3, 10% normal human serum (NHS), read-out: ViKinG IP (nM) with 10% NHS.

With `CCOC1CCC2(CC1)Cn1cc(C(=O)NCc3ccc(F)cc3F)c(=O)c(O)c1C(=O)N2CC` (stereo not shown) [Compound 182], the IC50 was determined as 4.02 nM under setting [1] and 45.5 nM under setting [2]. Consider `COCCN1C(=O)c2c(O)c(=O)c(C(=O)NCc3ccc(F)cc3F)cn2[C@@H](C)C12CC2` [Compound 183], for which the IC50 under setting [1] worked out at 3.17 nM and the IC50 under setting [2] was found to be 188 nM. On to `COCCN1C(=O)c2c(O)c(=O)c(C(=O)NCc3ccc(F)cc3)cn2[C@@H](C)C12CC2` [Compound 184], for which the IC50 is 2.66 nM under setting [1] and 178 nM under setting [2]. For `COCCN1C(=O)c2c(O)c(=O)c(C(=O)NCc3ccc(F)c(F)c3F)cn2[C@@H](C)C12CC2` [Compound 185], the IC50 stood at 2.2 nM under setting [1] and 212 nM under setting [2]. Taken in the same sequence, the figures for `CN1C(=O)c2c(O)c(=O)c(C(=O)NCc3ccc(F)cc3F)cn2N(C)[C@]12CC[C@@H]1C[C@@H]12` [Compound 186] were 1.74 nM and 283 nM. Taken in the same sequence, the figures for `CN1C(=O)c2c(O)c(=O)c(C(=O)NCc3ccc(F)cc3F)cn2N(C)[C@@]12CC[C@@H]1C[C@@H]12` [Compound 187] were 3.64 nM and 502 nM.

In the case of `CCN1C(=O)c2c(O)c(=O)c(C(=O)NCc3ccc(F)cc3F)cn2N(C)C12CC[C@@H]1C[C@@H]12` (stereo partly shown) [Compound 188], the IC50 is, setting by setting: under setting [1], 1.49 nM; under setting [2], 406 nM. Take `CCN1C(=O)c2c(O)c(=O)c(C(=O)NCc3ccc(F)cc3F)cn2N(C)[C@@]12CC[C@@H]1C[C@@H]12` [Compound 189]: the IC50 reads like this: under setting [1], 3.62 nM; under setting [2], 626 nM.

Consider `COCCN1C(=O)c2c(O)c(=O)c(C(=O)NCc3ccc(F)cc3F)cn2N(C)C12CC[C@@H]1C[C@@H]12` (stereo partly shown) [Compound 190], for which the IC50 reads like this: under setting [1], 29 nM; under setting [2], 2910 nM. For the molecule `CCOC1CCC2(CC1)N(CC)C(=O)c1c(O)c(=O)c(C(=O)NCc3ccc(F)cc3F)cn1N2C` (stereo not shown) [Compound 191], the IC50 reads like this: under setting [1], 6.74 nM; under setting [3], 239 nM. Turning to `CCOC1CCC2(CC1)N(CC)C(=O)c1c(O)c(=O)c(C(=O)NCc3ccc(F)cc3F)cn1N2C` (stereo not shown) [Compound 192], the IC50 was 3.66 nM under setting [4] and 67.2 nM under setting [3]. For `CCCOC1CCC2(CC1)N(CC)C(=O)c1c(O)c(=O)c(C(=O)NCc3ccc(F)cc3F)cn1N2C` (stereo not shown) [Compound 193], the IC50 reads like this: under setting [4], 8.24 nM; under setting [3], 84.8 nM. With `CCCOC1CCC2(CC1)N(CC)C(=O)c1c(O)c(=O)c(C(=O)NCc3ccc(F)cc3F)cn1N2C` (stereo not shown) [Compound 194], the IC50 is, setting by setting: under setting [4], 25 nM; under setting [3], 400 nM. Take `CN1C(=O)c2c(O)c(=O)c(-c3nnc(Cc4ccc(F)cc4F)s3)cn2N(C)C12CC[C@@H]1C[C@@]12CO` (stereo partly shown) [Compound 195]: the IC50 under setting [1] was determined as 2.02 nM and the IC50 under setting [3] is 190 nM. With `CN1n2cc(-c3nnc(Cc4ccc(F)cc4F)s3)c(=O)c(O)c2C(=O)NC12CC[C@@H]1C[C@@H]12` (stereo partly shown) [Compound 196], the IC50 by setting is: under setting [1], 1.61 nM; under setting [2], 307 nM. Regarding `COC(=O)[C@]12C[C@H]1CCC21N(C)C(=O)c2c(O)c(=O)c(-c3nnc(C(C)c4ccc(F)cc4F)s3)cn2N1C` (stereo partly shown) [Compound 206], the IC50 reads like this: under setting [1], 15.4 nM; under setting [5], 62.4 nM. Turning to `O=C1NC2(CCC2)Cn2cc(-c3nnc(Cc4ccc(F)cc4F)s3)c(=O)c(O)c21` [Compound 210], the IC50 is, setting by setting: under setting [1], 4.11 nM; under setting [5], 68.4 nM.

Consider `CCN1C(=O)c2c(O)c(=O)c(-c3nnc(Cc4ccc(F)cc4F)s3)cn2CC12CCC2` [Compound 211], for which the IC50 was found to be 10.3 nM under setting [1] and 2800 nM under setting [2]. With `COC1CCC2(CC1)Cn1cc(-c3nnc(Cc4ccc(F)cc4F)s3)c(=O)c(O)c1C(=O)N2C` (stereo not shown) [Compound 212], the IC50 is, setting by setting: under setting [1], 3.49 nM; under setting [3], 90.7 nM. For `COC1CCC2(CC1)Cn1cc(-c3nnc(Cc4ccc(F)cc4F)s3)c(=O)c(O)c1C(=O)N2C` (stereo not shown) [Compound 213], the IC50 under setting [4] turned out to be 5.89 nM and the IC50 under setting [3] was 35.8 nM. Consider `COCCN1C(=O)c2c(O)c(=O)c(-c3cn(Cc4ccc(F)cc4F)nn3)cn2CC12CCC2` [Compound 214], for which the IC50 amounted to 24.4 nM under setting [1] and 205 nM under setting [2]. Taken in the same sequence, the figures for `CN1C(=O)c2c(O)c(=O)c(-c3cn(Cc4ccc(F)cc4F)nn3)cn2CC12CCC2` [Compound 215] were 9.93 nM and 76.1 nM.

Consider `CCN1C(=O)c2c(O)c(=O)c(-c3cn(Cc4ccc(F)cc4F)nn3)cn2CC12CCC2` [Compound 216], for which the IC50 was 13.2 nM under setting [1] and 332 nM under setting [2].

For `CCN1C(=O)c2c(O)c(=O)c(-c3nnc(Cc4ccc(F)cc4)s3)cn2N(C)C12CCCCC2` [Compound 222], the IC50 under setting [1] stood at 1.28 nM. Turning to `CCN1C(=O)c2c(O)c(=O)c(-c3nnc(Cc4ccc(F)cc4)s3)cn2N(C)C12CC(C(=O)OC)C2` (stereo not shown) [Compound 224], the IC50 is, setting by setting: under setting [5], 49.3 nM; under setting [2], 361 nM.
